From PubChem BioAssay AID1259407 (Chemical Carcinogenesis Research Information System (CCRIS), 2018)
Activity calls are given as the source filed them. How the calls were made is not given here.

Test system: CCRIS mutagenicity, Ames/micronucleus/aberration tests
Test: CCRIS mutagenicity studies
Settings: Test System: AMES SALMONELLA TYPHIMURIUM
[1] = Strain/Indicator: TA98, Metabolic Activation: NONE, Method: STANDARD PLATE
[2] = Strain/Indicator: TA100, Metabolic Activation: NONE, Method: STANDARD PLATE
[3] = Strain/Indicator: TA100, Metabolic Activation: RAT, LIVER, S-9, AROCLOR 1254, Method: STANDARD PLATE
[4] = Strain/Indicator: TA1537, Metabolic Activation: NONE, Method: STANDARD PLATE
[5] = Strain/Indicator: TA1537, Metabolic Activation: RAT, LIVER, S-9, AROCLOR 1254, Method: STANDARD PLATE
[6] = Strain/Indicator: TA1538, Metabolic Activation: NONE, Method: STANDARD PLATE
[7] = Strain/Indicator: TA1538, Metabolic Activation: RAT, LIVER, S-9, AROCLOR 1254, Method: STANDARD PLATE
[8] = Strain/Indicator: TA98, Metabolic Activation: MICROSOMAL FRACTION, FULLY ACTIVATED, AND RAT LIVER S-9, Method: STANDARD PLATE
[9] = Strain/Indicator: TA98, Metabolic Activation: MICROSOMAL FRACTION, NON-FULLY ACTIVATED, Method: STANDARD PLATE
[10] = Strain/Indicator: TA100, Metabolic Activation: MICROSOMAL FRACTION, FULLY ACTIVATED, AND RAT LIVER S-9, Method: STANDARD PLATE
[11] = Strain/Indicator: TA100, Metabolic Activation: MICROSOMAL FRACTION, NON-FULLY ACTIVATED, Method: STANDARD PLATE
[12] = Strain/Indicator: TA1537, Metabolic Activation: MICROSOMAL FRACTION, FULLY ACTIVATED, AND RAT LIVER S-9, Method: STANDARD PLATE
[13] = Strain/Indicator: TA1537, Metabolic Activation: MICROSOMAL FRACTION, NON-FULLY ACTIVATED, Method: STANDARD PLATE

## O=C1NC(=O)C(c2ccccc2)(c2ccc(O)cc2)N1 (centres undefined)
Strain/Indicator: TA97, Metabolic Activation: NONE, Method: STANDARD PLATE
  mutagenic call: inactive; negative
Strain/Indicator: TA97, Metabolic Activation: RAT, LIVER, S-9, 3-METHYLCHOLANTHRENE, Method: PREINCUBATION (10, 20 OR 30 MIN)
  mutagenic call: inactive; negative
Strain/Indicator: TA97, Metabolic Activation: RAT, LIVER, S-9, 3-METHYLCHOLANTHRENE, Method: STANDARD PLATE
  mutagenic call: inactive; negative
Strain/Indicator: TA97, Metabolic Activation: RAT, LIVER, S-9, AROCLOR 1254, Method: PREINCUBATION (10, 20 OR 30 MIN)
  mutagenic call: inactive; negative
Strain/Indicator: TA97, Metabolic Activation: RAT, LIVER, S-9, AROCLOR 1254, Method: STANDARD PLATE
  mutagenic call: inactive; negative
Strain/Indicator: TA97, Metabolic Activation: RAT, LIVER, S-9, PHENOBARBITONE, Method: PREINCUBATION (10, 20 OR 30 MIN)
  mutagenic call: inactive; negative
Strain/Indicator: TA97, Metabolic Activation: RAT, LIVER, S-9, PHENOBARBITONE, Method: STANDARD PLATE
  mutagenic call: inactive; negative
[1]
  mutagenic call: inactive; negative
Strain/Indicator: TA98, Metabolic Activation: RAT, LIVER, S-9, 3-METHYLCHOLANTHRENE, Method: STANDARD PLATE
  mutagenic call: inactive; negative
Strain/Indicator: TA98, Metabolic Activation: RAT, LIVER, S-9, AROCLOR 1254, Method: STANDARD PLATE
  mutagenic call: inactive; negative
Strain/Indicator: TA98, Metabolic Activation: RAT, LIVER, S-9, PHENOBARBITONE, Method: STANDARD PLATE
  mutagenic call: inactive; negative
[2]
  mutagenic call: inactive; negative
Strain/Indicator: TA100, Metabolic Activation: RAT, LIVER, S-9, 3-METHYLCHOLANTHRENE, Method: STANDARD PLATE
  mutagenic call: inactive; negative
[3]
  mutagenic call: inactive; negative
Strain/Indicator: TA100, Metabolic Activation: RAT, LIVER, S-9, PHENOBARBITONE, Method: STANDARD PLATE
  mutagenic call: inactive; negative
Strain/Indicator: TA1530, Metabolic Activation: NONE, Method: STANDARD PLATE
  mutagenic call: inactive; negative
Strain/Indicator: TA1530, Metabolic Activation: RAT, LIVER, S-9, 3-METHYLCHOLANTHRENE, Method: STANDARD PLATE
  mutagenic call: inactive; negative
Strain/Indicator: TA1530, Metabolic Activation: RAT, LIVER, S-9, AROCLOR 1254, Method: STANDARD PLATE
  mutagenic call: inactive; negative
Strain/Indicator: TA1530, Metabolic Activation: RAT, LIVER, S-9, PHENOBARBITONE, Method: STANDARD PLATE
  mutagenic call: inactive; negative
[4]
  mutagenic call: inactive; negative
Strain/Indicator: TA1537, Metabolic Activation: RAT, LIVER, S-9, 3-METHYLCHOLANTHRENE, Method: STANDARD PLATE
  mutagenic call: inactive; negative
[5]
  mutagenic call: inactive; negative
Strain/Indicator: TA1537, Metabolic Activation: RAT, LIVER, S-9, PHENOBARBITONE, Method: STANDARD PLATE
  mutagenic call: inactive; negative
[6]
  mutagenic call: inactive; negative
Strain/Indicator: TA1538, Metabolic Activation: RAT, LIVER, S-9, 3-METHYLCHOLANTHRENE, Method: STANDARD PLATE
  mutagenic call: inactive; negative
[7]
  mutagenic call: inactive; negative
Strain/Indicator: TA1538, Metabolic Activation: RAT, LIVER, S-9, PHENOBARBITONE, Method: STANDARD PLATE
  mutagenic call: inactive; negative

## Nc1ccc([N+](=O)[O-])c(O)c1
[1]
  mutagenic call: inactive; negative
[2]
  mutagenic call: inactive; negative
[3]
  mutagenic call: inactive; negative
Strain/Indicator: TA1535, Metabolic Activation: NONE, Method: STANDARD PLATE
  mutagenic call: inactive; negative
Strain/Indicator: TA1535, Metabolic Activation: RAT, LIVER, S-9, AROCLOR 1254, Method: STANDARD PLATE
  mutagenic call: inactive; negative
[4]
  mutagenic call: inactive; negative
[5]
  mutagenic call: inactive; negative
[6]
  mutagenic call: inactive; negative

## CCc1c(O)c(O)c2c(c1O)C(=O)C(O)=C(O)C2=O
[8]
  mutagenic call: active; positive
[9]
  mutagenic call: active; positive
[10]
  mutagenic call: active; positive
[11]
  mutagenic call: active; positive
[12]
  mutagenic call: active; positive
[13]
  mutagenic call: inactive; negative

## N=C1C=CC2=C(S(=O)(=O)O)C=CC(=O)C2=C1NNc1ccc(-c2ccc(NNC3=C4C(=O)C=CC(S(=O)(=O)O)=C4C=CC3=N)cc2)cc1
Strain/Indicator: TA98, Metabolic Activation: HAMSTER, LIVER, S-9, Method: PREINCUBATION (PRIVAL METHOD)
  mutagenic call: active; positive

## CCc1c(O)c2c(c(O)c1OC)C(=O)C(OC)=C(OC)C2=O
[8]
  mutagenic call: inactive; negative
[9]
  mutagenic call: inactive; negative
[10]
  mutagenic call: inactive; negative
[11]
  mutagenic call: inactive; negative
[12]
  mutagenic call: inactive; negative
[13]
  mutagenic call: inactive; negative

## N=c1cc2oc3cc(N)ccc3nc-2c2ccccc12
[6]
  mutagenic call: inactive; negative
[7]
  mutagenic call: active; positive

## COc1ccc2c3c(cccc13)C(=O)N(C)C2=O
Strain/Indicator: TA98, Metabolic Activation: NONE, Method: PREINCUBATION
  mutagenic call: inactive; negative
Strain/Indicator: TA98, Metabolic Activation: S-9, Method: PREINCUBATION
  mutagenic call: inactive; negative
Strain/Indicator: TA100, Metabolic Activation: NONE, Method: PREINCUBATION
  mutagenic call: inactive; negative
Strain/Indicator: TA100, Metabolic Activation: S-9, Method: PREINCUBATION
  mutagenic call: inactive; negative
